Assays:
[1] = test system: albumin mRNA; test: Analysis of gene expression in vivo in C57BL/6J mice, albumin; settings: B6 mice, 3 doses of 1 nmol via tail vein, tissue harvesting on day 8
Procedure: (§1) Relative gene expression analysis by qPCR in vitro. For analyzing gene activation and protein expression, PANC-1 cells were seeded in duplicate into 24-well plates at a density of 1×10^5 cells per well. tTR14 or control aptamer (IRRE) conjugated to C/EBPα-saRNAs were added directly to the cells, at a final concentration of 100 nM or 200 nM. The treatment was repeated 24 h later and cells were harvested at final incubation times of 48 or 72 h. Total RNA was extracted for reverse transcription using an RNeasy kit (Qiagen). Target cDNA amplification and real-time PCR was performed using a Bio-rad kit (SsoAdvanced™ Universal SYBR® Green Supermix). For normalization, the reference gene 18S was used. To determine gene expression in vivo samples, total RNA was extracted for reverse transcription (QuantiFast® Reverse transcription, Qiagen) and target cDNA was amplified using real-time PCR (QuantiFast® SYBR®Green Master mix). The cDNA probes used were purchased as prevalidated QuantiTect® SYBR probes from Qiagen. Real-time PCR was performed with validated QuantiTect® SYBR probes (Qiagen) or validated FAM probes (Applied Biosystems).
(§2) Analysis of gene expression in vivo. Female or male at 6 week C57BL/6J mice were purchased from the Jackson laboratory for three conjugates; TC, TCT, and TCUT. […]

[2] = test system: PANC-Luc tumors; test: Liver-metastatic pancreatic cancer mouse model, combinational treatment with gemcitabine; assay type: in vivo, NOD/SCID mice; settings: conjugate 1 nmol 3 times/week I.P. combined with gemcitabine 50 mg/kg 2 times/week I.V., compared with PBS
Procedure: Intrahepatic pancreatic cancer liver-metastatic mouse model. To create an animal model harboring traceable tumors, a firefly luciferase fragment was inserted into the pLKO.1-AS3 backbone encoding the neo gene (National RNAi Core, Academia Sinica, Taiwan). One day before transduction, 293T cells were plated onto a 6-well plate. On the day of transduction, the medium was replaced with DMEM containing serial dilutions of the transfer plasmids and incubated for 5 h, then the medium was replaced. After two days, the culture medium containing recombinant lentiviral particles was obtained. PANC-1 cells were incubated with recombinant lentiviral particles for 24 h. […] Luciferase expression was assessed using the Luciferase Assay System. […] For the combinational treatment with gemcitabine, tumors were allowed to grow for 2 weeks after inoculation until they could be detected using an IVIS system, then mice were randomly divided into five groups of 10 animals/group. […] Tumor growth was monitored by evaluating bioluminescence using an IVIS 200 in vivo imaging platform (Caliper Life Sciences, Alameda, Calif.) and measuring the difference from before the first injection and one day after the last injection. […] The mice were imaged using the IVIS 200 and bioluminescent signals were analyzed using Living Image Software (Caliper Life Sciences, Alameda, Calif.). […]

[3] = test system: C/EBPα mRNA; test: Analysis of gene expression in vivo in C57BL/6J mice, C/EBPα; settings: B6 mice, 3 doses of 1 nmol via tail vein
Procedure: as §1, §2

[4] = test system: C/EBPα mRNA; test: Relative gene expression by qPCR in vitro, C/EBPα; assay type: cell-based, human
Procedure: as §1

[5] = test system: p21 mRNA; test: Relative gene expression by qPCR in vitro, p21; assay type: cell-based, human
Procedure: as §1

[6] = test system: PANC-1 cells; test: MTS assay, inhibition of cell proliferation; assay type: cell-based, human
Procedure: MTS assay. […] Cells were treated with tTR14-C/EBPα and […] at 100 nM or 200 nM twice at 24-h intervals.

[7] = PANC-1, 100 nM, 48 or 72 h (FIG. 7)
[8] = PANC-1, 72 h, 100 nM, compared to IRRE control group (FIG. 3)

TCUT: TR14 ST1-3 with CEBPA sense, a 10-uracil spacer and albumin affinity tag (UUUAUUCACAUUUUUGAAUUGAGCGGUCAUUGUCACUGGUCUUUUUUUUUUUUN; listed as RNA, chemistry not given here)
albumin mRNA levels in liver [1]: none increased
tumor burden by measuring photon increase [2]: significant reduction of tumor burden
mRNA levels of C/EBPα in brain tissue ([3]; tissue harvesting on day 8): no upregulation
mRNA levels of C/EBPα in liver ([3]; tissue harvesting on day 8, compared to untreated group): increased
upregulation of C/EBPα [4, 7]: upregulation
mRNA expression of C/EBPα [4, 8]: upregulation
upregulation of p21 [5, 7]: upregulation
mRNA expression of p21 [5, 8]: upregulation
cell proliferation by MTS assay [6, 7]: inhibited the cancer cell proliferation
cell proliferation by MTS assay ([6]; PANC-1, 72 h, compared to IRRE control group (FIG. 3)): inhibition of tumor cell proliferation

From patent US20220396794A1, “APTAMERS AGAINST TRANSFERRIN RECEPTOR (TfR)” (APTERNA LIMITED, priority 2019, published 2022)
